# Assay results published in patent US20240199649A1 (Biosplice Therapeutics, Inc., priority 2022, published 2024).
# Target: recombinant DYRK1A kinase (Homo sapiens (Human), UniProt Q13627)
# Assay: DYRK1A kinase assay (Ser/Thr 18 peptide Z-lyte FRET assay)
# Format: biochemical
# Conditions: DYRK1A 0.25 μg/mL, ATP 15 μM, Ser/Thr peptide 18 4 μM; one hour at room temperature; 11-point dose-response, duplicate
# How it was run: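 Z-lyte FRET assay on Ser/Thr 18 peptide, kinase activity read as coumarin/fluorescein emission ratio; compounds incubated 1 h at room temperature, then development reagent 1 h, in duplicate. Phosphorylated and unphosphorylated peptide served as controls; IC50 by non-linear regression of dose-response curves.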
row,IC50 [nM],Compound
1,0.4,"CC(=O)N1CC[C@H](Nc2nc(N)c3c(-c4ccc5nc(C)n(CC(F)F)c5n4)ccn3n2)[C@H](F)C1 [Compound 715, 1-((3R,4S)-4-((4-Amino-5-(3-(2,2-difluoroethyl)-2-methyl-3H-imidazo[4,5-b]pyridin-5-yl)pyrrolo[2,1-f][1,2,4]triazin-2-yl)amino)-3-fluoropiperidin-1-yl)ethan-1-one]"
2,0.4,"CC(=O)N1CC[C@@H](Nc2nc(N)c3c(-c4ccc5nc(C)n(CC(F)F)c5n4)ccn3n2)C(F)(F)C1 [Compound 729, (R)-1-(4-((4-Amino-5-(3-(2,2-difluoroethyl)-2-methyl-3H-imidazo[4,5-b]pyridin-5-yl)pyrrolo[2,1-f][1,2,4]triazin-2-yl)amino)-3,3-difluoropiperidin-1-yl)ethan-1-one]"
3,0.5,"Cc1nc2ccc(-c3ccn4nc(N[C@H]5CC[C@](C)(O)CC5)nc(N)c34)nc2n1CC(F)(F)F [Compound 754, (1r,4r)-4-((4-Amino-5-(2-methyl-3-(2,2,2-trifluoroethyl)-3H-imidazo[4,5-b]pyridin-5-yl)pyrrolo[2,1-f][1,2,4]triazin-2-yl)amino)-1-methylcyclohexan-1-ol]"
4,1.5,"CC(=O)N1C[C@H](F)[C@H](Nc2nc(N)c3c(-c4ccc5nc(C)n(CC(F)(F)F)c5n4)ccn3n2)C1 [Compound 762, 1-((3R,4S)-3-((4-Amino-5-(2-methyl-3-(2,2,2-trifluoroethyl)-3H-imidazo[4,5-b]pyridin-5-yl)pyrrolo[2,1-f][1,2,4]triazin-2-yl)amino)-4-fluoropyrrolidin-1-yl)ethan-1-one]"
5,1.4,"Cc1nc2ccc(-c3ccn4nc(N[C@@H]5CN(C6COC6)C[C@@H]5F)nc(N)c34)nc2n1CC(F)(F)F [Compound 763, N^2-((3R,4S)-4-Fluoro-1-(oxetan-3-yl)pyrrolidin-3-yl)-5-(2-methyl-3-(2,2,2-trifluoroethyl)-3H-imidazo[4,5-b]pyridin-5-yl)pyrrolo[2,1-f][1,2,4]triazine-2,4-diamine]"
6,1.2,"CC(=O)N1CC[C@H](Nc2nc(N)c3c(-c4ccc5nc(C)n(CC(F)(F)F)c5n4)ccn3n2)[C@H](F)C1 [Compound 777, 1-((3R,4S)-4-((4-Amino-5-(2-methyl-3-(2,2,2-trifluoroethyl)-3H-imidazo[4,5-b]pyridin-5-yl)pyrrolo[2,1-f][1,2,4]triazin-2-yl)amino)-3-fluoropiperidin-1-yl)ethan-1-one]"
7,1.2,"Cc1nc2ccc(-c3ccn4nc(N[C@H]5CCN(C6COC6)C[C@H]5F)nc(N)c34)nc2n1CC(F)(F)F [Compound 780, N^2-((3R,4S)-3-Fluoro-1-(oxetan-3-yl)piperidin-4-yl)-5-(2-methyl-3-(2,2,2-trifluoroethyl)-3H-imidazo[4,5-b]pyridin-5-yl)pyrrolo[2,1-f][1,2,4]triazine-2,4-diamine]"
8,4.8,"Cc1nc2ccc(-c3ccn4nc(N[C@@H]5CCN(C6COC6)CC5(F)F)nc(N)c34)nc2n1CC(F)(F)F [Compound 792, (R)—N^2-(3,3-Difluoro-1-(oxetan-3-yl)piperidin-4-yl)-5-(2-methyl-3-(2,2,2-trifluoroethyl)-3H-imidazo[4,5-b]pyridin-5-yl)pyrrolo[2,1-f][1,2,4]triazine-2,4-diamine]"
9,0.8,"CC(=O)N1C[C@H](F)[C@H](Nc2nc(N)c3c(-c4ccc5ncn(CC(F)F)c5n4)ccn3n2)C1 [Compound 987, 1-((3R,4S)-3-((4-Amino-5-(3-(2,2-difluoroethyl)-3H-imidazo[4,5-b]pyridin-5-yl)pyrrolo[2,1-f][1,2,4]triazin-2-yl)amino)-4-fluoropyrrolidin-1-yl)ethan-1-one]"
10,0.8,"Cc1nc2ccc(-c3ccn4nc(N[C@H]5CC[C@](C)(O)CC5)nc(N)c34)nc2n1CCF [Compound 995, (1r,4r)-4-((4-Amino-5-(3-(2-fluoroethyl)-2-methyl-3H-imidazo[4,5-b]pyridin-5-yl)pyrrolo[2,1-f][1,2,4]triazin-2-yl)amino)-1-methylcyclohexan-1-ol]"
11,1.8,"CC(=O)N1CC[C@H](Nc2nc(N)c3c(-c4ccc5nc(C)n(CCF)c5n4)ccn3n2)[C@H](F)C1 [Compound 996, 1-((3R,4S)-4-((4-Amino-5-(3-(2-fluoroethyl)-2-methyl-3H-imidazo[4,5-b]pyridin-5-yl)pyrrolo[2,1-f][1,2,4]triazin-2-yl)amino)-3-fluoropiperidin-1-yl)ethan-1-one]"
12,1.7,"Cc1nc2ccc(-c3ccn4nc(N[C@H]5CCN(C6COC6)C[C@H]5F)nc(N)c34)nc2n1CCF [Compound 997, N^2-((3R,4S)-3-Fluoro-1-(oxetan-3-yl)piperidin-4-yl)-5-(3-(2-fluoroethyl)-2-methyl-3H-imidazo[4,5-b]pyridn-5-yl)pyrrolo[2,1-f][1,2,4]triazine-2,4-diamine]"

# The next lines start with the molecule.
row,Compound,IC50 [nM]
1,"Cc1nc2ccc(-c3ccn4nc(N[C@@H]5CCN(C6COC6)CC5(F)F)nc(N)c34)nc2n1CC(F)F [Compound 730, (R)—N^2-(3,3-Difluoro-1-(oxetan-3-yl)piperidin-4-yl)-5-(3-(2,2-difluoroethyl)-2-methyl-3H-imidazo[4,5-b]pyridin-5-yl)pyrrolo[2,1-f][1,2,4]triazine-2,4-diamine]",2.1
2,"C[C@]1(O)CC[C@H](Nc2nc(N)c3c(-c4ccc5nnn(CC(F)F)c5n4)ccn3n2)CC1 [Compound 816, (1r,4r)-4-((4-Amino-5-(3-(2,2-difluoroethyl)-3H-[1,2,3]triazolo[4,5-b]pyridin-5-yl)pyrrolo[2,1-f][1,2,4]triazin-2-yl)amino)-1-methylcyclohexan-1-ol]",1.3
3,"Nc1nc(N[C@H]2CCN(C3COC3)C[C@H]2F)nn2ccc(-c3ccc4nnn(CC(F)F)c4n3)c12 [Compound 842, 5-(3-(2,2-Difluoroethyl)-3H-[1,2,3]triazolo[4,5-b]pyridin-5-yl)-N^2-((3R,4S)-3-fluoro-1-(oxetan-3-yl)piperidin-4-yl)pyrrolo[2,1-f][1,2,4]triazine-2,4-diamine]",1.5
4,"CN1CC[C@@H](Nc2nc(N)c3c(-c4ccc5nnn(CC(F)F)c5n4)ccn3n2)C(F)(F)C1 [Compound 850, (R)—N^2-(3,3-Difluoro-1-methylpiperidin-4-yl)-5-(3-(2,2-difluoroethyl)-3H-[1,2,3]triazolo[4,5-b]pyridin-5-yl)pyrrolo[2,1-f][1,2,4]triazine-2,4-diamine]",0.6
5,"CC(=O)N1CC[C@@H](Nc2nc(N)c3c(-c4ccc5nnn(CC(F)F)c5n4)ccn3n2)C(F)(F)C1 [Compound 853, (R)-1-(4-((4-Amino-5-(3-(2,2-difluoroethyl)-3H-[1,2,3]triazolo[4,5-b]pyridin-5-yl)pyrrolo[2,1-f][1,2,4]triazin-2-yl)amino)-3,3-difluoropiperidin-1-yl)ethan-1-one]",1.5
6,"Nc1nc(N[C@@H]2CCN(C3COC3)CC2(F)F)nn2ccc(-c3ccc4nnn(CC(F)F)c4n3)c12 [Compound 854, (R)—N^2-(3,3-Difluoro-1-(oxetan-3-yl)piperidin-4-yl)-5-(3-(2,2-difluoroethyl)-3H-[1,2,3]triazolo[4,5-b]pyridin-5-yl)pyrrolo[2,1-f][1,2,4]triazine-2,4-diamine]",2.1
7,"CN1CC[C@@H](Nc2nc(N)c3c(-c4ccc5ncn(CCF)c5n4)ccn3n2)C(F)(F)C1 [Compound 985, (R)—N^2-(3,3-Difluoro-1-methylpiperidin-4-yl)-5-(3-(2-fluoroethyl)-3H-imidazo[4,5-b]pyridin-5-yl)pyrrolo[2,1-f][1,2,4]triazine-2,4-diamine]",1.5
8,"C[C@]1(O)CC[C@H](Nc2nc(N)c3c(-c4ccc5ncn(CC(F)F)c5n4)ccn3n2)CC1 [Compound 986, (1r,4r)-4-((4-Amino-5-(3-(2,2-difluoroethyl)-3H-imidazo[4,5-b]pyridin-5-yl)pyrrolo[2,1-f][1,2,4]triazin-2-yl)amino)-1-methylcyclohexan-1-ol]",0.7
9,"Nc1nc(N[C@@H]2CN(C3COC3)C[C@@H]2F)nn2ccc(-c3ccc4ncn(CC(F)F)c4n3)c12 [Compound 988, 5-(3-(2,2-Difluoroethyl)-3H-imidazo[4,5-b]pyridin-5-yl)-N^2-((3R,4S)-4-fluoro-1-(oxetan-3-yl)pyrrolidin-3-yl)pyrrolo[2,1-f][1,2,4]triazine-2,4-diamine]",0.6
10,"Nc1nc(N[C@H]2CCN(C3COC3)C[C@H]2F)nn2ccc(-c3ccc4ncn(CC(F)F)c4n3)c12 [Compound 990, 5-(3-(2,2-Difluoroethyl)-3H-imidazo[4,5-b]pyridin-5-yl)-N^2-((3R,4S)-3-fluoro-1-(oxetan-3-yl)piperidin-4-yl)pyrrolo[2,1-f][1,2,4]triazine-2,4-diamine]",0.6
11,"CN1CC[C@@H](Nc2nc(N)c3c(-c4ccc5ncn(CC(F)F)c5n4)ccn3n2)C(F)(F)C1 [Compound 991, (R)—N^2-(3,3-Difluoro-1-methylpiperidin-4-yl)-5-(3-(2,2-difluoroethyl)-3H-imidazo[4,5-b]pyridin-5-yl)pyrrolo[2,1-f][1,2,4]triazine-2,4-diamine]",0.4
12,"CC(=O)N1CC[C@@H](Nc2nc(N)c3c(-c4ccc5ncn(CC(F)F)c5n4)ccn3n2)C(F)(F)C1 [Compound 992, (R)-1-(4-((4-Amino-5-(3-(2,2-difluoroethyl)-3H-imidazo[4,5-b]pyridin-5-yl)pyrrolo[2,1-f][1,2,4]triazin-2-yl)amino)-3,3-difluoropiperidin-1-yl)ethan-1-one]",0.7
13,"Nc1nc(N[C@@H]2CCN(C3COC3)CC2(F)F)nn2ccc(-c3ccc4ncn(CC(F)F)c4n3)c12 [Compound 993, (R)—N^2-(3,3-Difluoro-1-(oxetan-3-yl)piperidin-4-yl)-5-(3-(2,2-difluoroethyl)-3H-imidazo[4,5-b]pyridin-5-yl)pyrrolo[2,1-f][1,2,4]triazine-2,4-diamine]",0.6
14,"CN1CC[C@@H](Nc2nc(N)c3c(-c4ccc5ncn(CC(F)(F)F)c5n4)ccn3n2)C(F)(F)C1 [Compound 994, (R)—N^2-(3,3-Difluoro-1-methylpiperidin-4-yl)-5-(3-(2,2,2-trifluoroethyl)-3H-imidazo[4,5-b]pyridin-5-yl)pyrrolo[2,1-f][1,2,4]triazine-2,4-diamine]",1.2
